# Marks after values point to notes of the source that are not given here.
# How the values were obtained:
# [1] = Weight gains and feed efficiency in broiler chicks treated with E19020 alpha (Table IX A); assay type: in vivo; conditions: for FEED/GAIN 0-3 WEEKS: control 1.43; for FEED/GAIN 0-7 WEEKS: control 1.99; for WEIGHT GAIN IN GRAMS 0-3 WEEKS: control 608; for WEIGHT GAIN IN GRAMS 0-7 WEEKS: control 2145
# Method: Five male and five female one day old Peterson X Arbor Acres chicks are allotted to starter battery cages by weight. Cages are randomized to treatment groups with seven replicates per treatment. […] The positive standard is penicillin at 200 ppm. Diets are prepared weekly.
# Babesia bovis = experiment: Anti-Babesia bovis activity, 3H hypoxanthine incorporation in in vitro culture; conditions: parasitemia of 4%
structure (smiles),measurement,setting,value
C/C=C\C=C\[C@@H]1O[C@](O)([C@H](CO[C@H]2C[C@@H](OC)[C@@H](O[C@@H]3C[C@@H](OC)[C@@H](O[C@H]4C[C@H](OC)[C@H](O)[C@H](C)O4)[C@H](C)O3)[C@@H](C)O2)C(=O)NC/C=C/C=C(\C)[C@@H](OC)[C@H](C)[C@H]2C[C@H](O)[C@H](/C=C/C=C/C=C/C(=O)O)O2)[C@H](OC(=O)Cc2ccccc2)[C@H](O)C1(C)C [LL-E19020 alpha],FEED/GAIN % IMPROVEMENT OVER CONTROLS 0-3 WEEKS,[1]; 6.25 PPM,3.5%
same,FEED/GAIN % IMPROVEMENT OVER CONTROLS 0-7 WEEKS,[1]; 6.25 PPM,5.0%
same,WEIGHT GAIN % IMPROVEMENT OVER CONTROLS 0-3 WEEKS,[1]; 6.25 PPM,4.4%
same,WEIGHT GAIN % IMPROVEMENT OVER CONTROLS 0-7 WEEKS,[1]; 6.25 PPM,1.8%
same,FEED/GAIN 0-3 WEEKS,[1]; 6.25 PPM,1.38**
same,FEED/GAIN 0-7 WEEKS,[1]; 6.25 PPM,1.89**
same,WEIGHT GAIN IN GRAMS 0-3 WEEKS,[1]; 6.25 PPM,635* GRAMS
same,WEIGHT GAIN IN GRAMS 0-7 WEEKS,[1]; 6.25 PPM,2183 GRAMS
same,FEED/GAIN % IMPROVEMENT OVER CONTROLS 0-3 WEEKS,[1]; 12.5 PPM,3.5%
same,FEED/GAIN % IMPROVEMENT OVER CONTROLS 0-7 WEEKS,[1]; 12.5 PPM,4.0%
same,WEIGHT GAIN % IMPROVEMENT OVER CONTROLS 0-3 WEEKS,[1]; 12.5 PPM,6.3%
same,WEIGHT GAIN % IMPROVEMENT OVER CONTROLS 0-7 WEEKS,[1]; 12.5 PPM,2.5%
same,FEED/GAIN 0-3 WEEKS,[1]; 12.5 PPM,1.38**
same,FEED/GAIN 0-7 WEEKS,[1]; 12.5 PPM,1.91**
same,WEIGHT GAIN IN GRAMS 0-3 WEEKS,[1]; 12.5 PPM,647* GRAMS
same,WEIGHT GAIN IN GRAMS 0-7 WEEKS,[1]; 12.5 PPM,2198 GRAMS
same,FEED/GAIN % IMPROVEMENT OVER CONTROLS 0-3 WEEKS,[1]; 25 PPM,3.5%
same,FEED/GAIN % IMPROVEMENT OVER CONTROLS 0-7 WEEKS,[1]; 25 PPM,5.0%
same,WEIGHT GAIN % IMPROVEMENT OVER CONTROLS 0-3 WEEKS,[1]; 25 PPM,8.4%
same,WEIGHT GAIN % IMPROVEMENT OVER CONTROLS 0-7 WEEKS,[1]; 25 PPM,5.7%
same,FEED/GAIN 0-3 WEEKS,[1]; 25 PPM,1.38**
same,FEED/GAIN 0-7 WEEKS,[1]; 25 PPM,1.89**
same,WEIGHT GAIN IN GRAMS 0-3 WEEKS,[1]; 25 PPM,659** GRAMS
same,WEIGHT GAIN IN GRAMS 0-7 WEEKS,[1]; 25 PPM,2267* GRAMS
same,FEED/GAIN % IMPROVEMENT OVER CONTROLS 0-3 WEEKS,[1]; 50 PPM,2.8%
same,FEED/GAIN % IMPROVEMENT OVER CONTROLS 0-7 WEEKS,[1]; 50 PPM,4.0%
same,WEIGHT GAIN % IMPROVEMENT OVER CONTROLS 0-3 WEEKS,[1]; 50 PPM,5.6%
same,WEIGHT GAIN % IMPROVEMENT OVER CONTROLS 0-7 WEEKS,[1]; 50 PPM,2.8%
same,FEED/GAIN 0-3 WEEKS,[1]; 50 PPM,1.39*
same,FEED/GAIN 0-7 WEEKS,[1]; 50 PPM,1.91**
same,WEIGHT GAIN IN GRAMS 0-3 WEEKS,[1]; 50 PPM,642* GRAMS
same,WEIGHT GAIN IN GRAMS 0-7 WEEKS,[1]; 50 PPM,2206 GRAMS
same,FEED/GAIN % IMPROVEMENT OVER CONTROLS 0-3 WEEKS,[1]; 100 PPM,5.6%
same,FEED/GAIN % IMPROVEMENT OVER CONTROLS 0-7 WEEKS,[1]; 100 PPM,4.0%
same,WEIGHT GAIN % IMPROVEMENT OVER CONTROLS 0-3 WEEKS,[1]; 100 PPM,7.3%
same,WEIGHT GAIN % IMPROVEMENT OVER CONTROLS 0-7 WEEKS,[1]; 100 PPM,2.8%
same,FEED/GAIN 0-3 WEEKS,[1]; 100 PPM,1.35**
same,FEED/GAIN 0-7 WEEKS,[1]; 100 PPM,1.91**
same,WEIGHT GAIN IN GRAMS 0-3 WEEKS,[1]; 100 PPM,652** GRAMS
same,WEIGHT GAIN IN GRAMS 0-7 WEEKS,[1]; 100 PPM,2204 GRAMS
same,50% inhibitory concentration,Babesia bovis,0.625 µg/mL

# From patent publication EP0252380B1, “Antibiotic LL-E19020 alpha and beta” (AMERICAN CYANAMID COMPANY, priority 1986, dated 1988)
